No end group written: not given here.

The values below come from article PMC9965520, “An Efficient Peptidomics Screening for Exogenous Substrates and Inhibitory Peptides of the Dipeptidase ACE from Milk Hydrolysate” (Pharmaceutics, 2023).

For the first data set, the target named is T1, ACE (Oryctolagus cuniculus, UniProt P12822).
T1 sequence (P12822 34-1310): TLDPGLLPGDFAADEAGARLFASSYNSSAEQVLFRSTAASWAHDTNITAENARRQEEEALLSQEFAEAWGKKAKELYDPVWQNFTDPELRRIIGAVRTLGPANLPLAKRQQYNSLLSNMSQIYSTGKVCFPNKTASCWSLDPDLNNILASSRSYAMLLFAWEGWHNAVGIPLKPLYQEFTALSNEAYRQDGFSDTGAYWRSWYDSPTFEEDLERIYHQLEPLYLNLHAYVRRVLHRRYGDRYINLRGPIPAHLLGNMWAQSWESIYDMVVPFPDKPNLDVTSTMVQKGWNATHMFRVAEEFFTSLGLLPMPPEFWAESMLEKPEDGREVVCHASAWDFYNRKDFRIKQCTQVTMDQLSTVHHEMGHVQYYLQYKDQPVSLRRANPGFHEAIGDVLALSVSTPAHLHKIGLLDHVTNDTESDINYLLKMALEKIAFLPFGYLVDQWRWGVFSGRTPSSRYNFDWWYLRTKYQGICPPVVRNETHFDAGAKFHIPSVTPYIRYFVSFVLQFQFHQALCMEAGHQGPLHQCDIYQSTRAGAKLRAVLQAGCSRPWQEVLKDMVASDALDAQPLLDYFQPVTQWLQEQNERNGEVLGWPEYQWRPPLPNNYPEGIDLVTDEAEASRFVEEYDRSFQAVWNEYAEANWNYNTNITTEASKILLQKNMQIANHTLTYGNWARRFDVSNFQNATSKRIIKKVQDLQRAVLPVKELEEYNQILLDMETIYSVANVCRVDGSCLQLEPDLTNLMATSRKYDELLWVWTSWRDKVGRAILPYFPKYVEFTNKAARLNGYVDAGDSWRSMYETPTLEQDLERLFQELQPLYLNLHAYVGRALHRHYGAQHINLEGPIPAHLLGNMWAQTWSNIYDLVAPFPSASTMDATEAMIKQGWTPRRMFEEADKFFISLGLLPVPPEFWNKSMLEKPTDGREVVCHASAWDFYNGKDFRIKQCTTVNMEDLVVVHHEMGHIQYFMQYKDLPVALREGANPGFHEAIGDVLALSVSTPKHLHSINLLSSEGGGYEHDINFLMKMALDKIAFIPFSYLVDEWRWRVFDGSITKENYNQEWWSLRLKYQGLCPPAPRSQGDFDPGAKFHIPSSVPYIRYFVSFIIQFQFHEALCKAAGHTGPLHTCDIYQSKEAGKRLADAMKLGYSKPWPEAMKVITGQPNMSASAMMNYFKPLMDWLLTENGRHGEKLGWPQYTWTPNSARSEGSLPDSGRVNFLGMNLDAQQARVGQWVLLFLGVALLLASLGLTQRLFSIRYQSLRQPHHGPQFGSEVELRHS
Experiment: not given
Particulars: pH 8.3.
In the case of “DRVYIHPFHL [Ang-I, angiotensin I, reference compound]”, the “Hydrolysis of Ang-I by ACE without exogenous substrates” value is recorded as “hydrolyzed almost completely”.

The next data set deals with ACE.
Experiment: not given
Particulars: 3 h of incubation with ACE; ref 21 (Forghani et al.); cited from earlier work. On the procedure:
To investigate the sequence conservation of the exogenous substrates, the identified substrates listed on Table 1 were analyzed using Weblogo (https://weblogo.berkeley.edu/). WebLogo is the software designed to analyze the frequency of residues that appeared at various positions in a sequence library. The font size of each letter (residue) represents the frequency appearance of each residue at a certain position. The order from the most frequent to the least frequent is arranged from the top to the bottom for each residue. The chemical properties of amino acid residues are classified by ...
As for CRQNTLGHNTQTSIAQ, the “peptide loss on incubation with ACE” value is recorded as 7%.

The target in another data set is T1, ACE. As to the kind of experiment: ACE pre-incubation of milk hydrolysate peptide libraries, stable-isotope dimethyl labeling and LC-MS/MS (D/H ratio). Type of data set: in vitro ADME, rabbit. Details: ACE (EC 3.4.15.1, 1 unit) from rabbit lungs; purchased Sigma Chemical Co. (St. Louis, MO, USA); host or cells: rabbit lungs (tissue-derived enzyme). Particulars: milk hydrolysate peptide library (<3 kDa); ACE-treated (0.05 mU/μL ACE, borate buffer, 37 °C, 3 h: 1.5 h static + 1.5 h 200 rpm; D-labeled) versus untreated (H-labeled) peptide; intensity ratio in LC-MS; <1 = hydrolysed by ACE. As to the method:
The peptide libraries (200 μg) dissolved in borate buffer were equally divided into two parts, one was without any treatment (control group); the other part (experimental group) was incubated with 0.05 mU/μL ACE at 37℃ for 1.5 h statically, followed by gentle shaking at 200 rpm for another 1.5 h, and then the ACE reaction was quenched using 60 μL of 1N HCl. After lyophilization, both samples were redissolved in 100 μL of 0.1M sodium acetate and modified using stable-isotope dimethyl labeling according to the previous study with slight modifications. Briefly, the control group (without ACE incubation) had 4 μL of formaldehyde (37% solution in H2O) and 1 M NaBH3CN (10 μL) added to it; the experimental group had 20% formaldehyde-d2 (8 μL) and 1M NaBH3CN (10 μL) added to it. After 1h, 5 μL of ammonia (28% solution in H2O) were added individually to both groups to stop the reaction. The experimental group and the control group were combined and desalted using the PepClean™C18 spin column. The resulting peptide mixture was lyophilized and kept at −20 °C prior to LC-MS/MS analysis. Formaldehyde is known to the state of California to cause cancer; special caution was taken including the use of surgical gloves and a fume hood when formaldehyde was handled.
The combined mixture re-dissolved in 5% ACN containing 0.1% formic acid was separated using an Ultimate 3000 RSLC system (Dionex, Sunnyvale, CA, USA) coupled with a C18 column (Acclaim PepMap RSLC, 75 μm × 150 mm, Thermo Scientific, Waltham, Middlesex, MA, USA) and analyzed with a Thermo Q-ExactiveTM mass spectrometer (Thermo Scientific Inc., Waltham, Middlesex, MA, USA). The elution solution was composed of mobile phase A (0.1% formic acid in water) and B (0.1% formic acid in 95% acetonitrile). The elution gradient was arranged as follows: (i) isocratic elution using 1% B in the first 5.5 min for sample loading, (ii) linear gradient from 1% to 60% B in the next 39.5 min, (iii) linear gradient from 60% to 80% B in the following 10 min, and finally (iv) isocratic elution using 1% solution B for 10 min. The flow rate applied in the LC separation was maintained at 250 µL/min. The separated peptides were analyzed and quantified using Q-ExactiveTM mass spectrometry which was operated in the data-dependent mode and switched automatically between MS and HCD-MS2. A full MS scan was carried out in a 100 and 1500 m/z range, and the 14 ions of the highest intensities were selected for MS/MS scans. The RAW data were converted to the MGF file format followed by database-assisted sequencing with PEAKS DB using PEAKS Studio X (Bioinformatics Solutions Inc., Waterloo, ON, Canada). The parameters used for peptide identification were listed as follows: (1) Database: UniProt_SwissProt (Bos taurus); (2) Enzyme: pepsin, trypsin, α-chymotrypsin, or GI (the combination of these three proteases); (3) Type of enzyme: Unspecific; (4) Instrument: Orbitrap; (5) Parent mass error tolerance: 20 ppm; (6) Fragment mass error tolerance: 0.6 Da; (7) Variable modifications: Dimethyl (K), Dimethyl (N-term), Dimethyl:2H(4) (K), and Dimethyl:2H(4) (N-term) were used for identification and quantitative analysis. The sequence identified through the database was validated by manually matching with the MS/MS spectrum in the raw data. In addition to MS/MS analysis coupled with PEAKS studio, the ACE’s substrate candidates were further confirmed using the synthetic peptides with corresponding sequences by comparison with their LC retention times, m/z values, and MS/MS spectra. The relative abundances of hydrogen (H) and deuterium (D) labeled peptides were quantified based on the peak areas in their corresponding selective ion chromatograms (SIC). The D/H ratio of identified peptide with the same sequence was further examined by their relative signal intensities in MS spectrum. Theoretically, the D/H ratio of the isobaric pair should stay at 1 if the peptide will not react with ACE. […]
With HQPHQPLPPTVM [HQPHQPLPPTVM], the “D/H Ratio” value worked out at 0.40. In the case of DMPIQAFL [DMPIQAFL], the “D/H Ratio” value was 0.59. Still for that read-out and setting: as for MFPPQSVL [MFPPQSVL], the figure is 0.21.

As for SRYPSYGLN [SRYPSYGLN], the “D/H Ratio” value is on record as 0.81. The same measure, in the same setting: next, IPPLTQT [IPPLTQT]: 0.47. With ALNEINQFY [ALNEINQFY], the “D/H Ratio” value came to 0.84. In the case of SIVHPSY [SIVHPSY], the “D/H Ratio” value was 0.18. As to TTMPLW [TTMPLW], the “D/H Ratio” value was found to be 0.15.

For HPHPHLSF [HPHPHLSF], the “D/H Ratio” value was found to be 0.15.

As for FALPQYLK [FALPQYLK], the “D/H Ratio” value was 0.94.

With NAVPITPTLNR [NAVPITPTLNR], the “D/H Ratio” value is 0.61.

As for ALPMHIR [ALPMHIR], the “D/H Ratio” value amounted to 0.15. Turning to DMPIQAF [DMPIQAF], the “D/H Ratio” value was found to be 0.55. As for FPQYLQY [FPQYLQY], the “D/H Ratio” value was 0.12. VVPPFLQPEVM [VVPPFLQPEVM]: the “D/H Ratio” value came to 0.80. On to INNQFLPYPYY [INNQFLPYPYY], for which the “D/H Ratio” value is reported as 0.33. As for HQGLPQEVLNENLLR [HQGLPQEVLNENLLR], the “D/H Ratio” value is recorded as 0.76. Same read-out and setting: as for KVIPYVRY [KVIPYVRY], the figure is 0.66. For LRPVAAEIY [LRPVAAEIY], the “D/H Ratio” value came to 0.65. On to AVPYPQR [AVPYPQR], for which the “D/H Ratio” value is 0.44. YPVEPFTESQSL [YPVEPFTESQSL]: the “D/H Ratio” value came out at 0.76. For QLDAYPSGAW [QLDAYPSGAW], the “D/H Ratio” value is on record as 0.47. Take QVSLNSGY [QVSLNSGY]: the “D/H Ratio” value worked out at 0.56. Regarding VAPFPEVFG [VAPFPEVFG], the “D/H Ratio” value is listed as 0.83. Same read-out and setting: as for SAYPGQITSN [SAYPGQITSN], the figure is 0.65.

The target of a further data set is T1, ACE. As to the kind of experiment: ACE hydrolysis of synthetic substrate candidates monitored by LC-MS at different incubation times. Particulars: synthetic peptide incubated with ACE, 37 °C, 3 h, LC-MS/MS. Format: in vitro ADME, rabbit. Details: ACE (EC 3.4.15.1, 1 unit) from rabbit lungs; purchased Sigma Chemical Co. (St. Louis, MO, USA); host or cells: rabbit lungs (tissue-derived enzyme). As to the method: To confirm the reactivity of the identified peptide candidates towards ACE, the synthetic peptides were individually mixed with ACE and incubated at 37 °C for 3 h. The remaining peptide substrate and the resulting product were analyzed using LC-MS/MS. Meanwhile, the degradation rate of each peptide was monitored every 30 min using LC-MS. The percentage of the remaining substrate (RS%) at each time point was calculated as As/(As + Ap) 100%. In which, As is the selective ion chromatogram (SIC) peak area of remaining substrate and Ap is the peak area of the resulting product. The RS% was further compared with the D/H ratio obtained in Section 2.4.
Regarding NIPPLTQTPV [NV-10], the “Hydrolysis of synthetic peptide by ACE (result in words)” value (“Hydrolysis of synthetic peptide by ACE” below) was “avoid ACE’s hydrolysis”. With LVYPFPGPIHN [LVYPFPGPIHN], the “Hydrolysis of synthetic peptide by ACE” value is on record as “retard the second cleavage”. With LYQGPIVL [LYQGPIVL], the “Hydrolysis of synthetic peptide by ACE” value is reported as “survive from ACE’s hydrolysis”. Turning to VRSPAQILQ [VRSPAQILQ], the “Hydrolysis of synthetic peptide by ACE” value is recorded as “survive from ACE’s hydrolysis”.

For LVYPFPGPLHNSL [LVYPFPGPLHNSL], the “Hydrolysis of synthetic peptide by ACE” value is given as “readily hydrolyzed by ACE”. For the substance IASGEPTSTPTTE [IE-13], the “Hydrolysis of synthetic peptide by ACE” value is “avoid ACE’s hydrolysis”.
